Results published in PubChem BioAssay (NCI).
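All cell lines were grown in 96-well plates and treated with compound for 48 hours. TGI: concentration producing complete growth inhibition.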

Key:
Test in all cases: DTP human tumour cell line panel, 48 h
MCF7 breast = tested on: MCF7 breast
MDA-N = tested on: MDA-N
RPMI-8226 leukemia = tested on: RPMI-8226 leukemia
IGROV1 ovarian = tested on: IGROV1 ovarian
CAKI-1 renal = tested on: CAKI-1 renal
HOP-92 NSCLC = tested on: HOP-92 NSCLC
SR leukemia = tested on: SR leukemia
MOLT-4 leukemia = tested on: MOLT-4 leukemia
U251 CNS = tested on: U251 CNS
SF-295 CNS = tested on: SF-295 CNS
A549 NSCLC = tested on: A549 NSCLC
HCT-116 colon = tested on: HCT-116 colon
OVCAR-3 ovarian = tested on: OVCAR-3 ovarian
SN12C renal = tested on: SN12C renal
SW-620 colon = tested on: SW-620 colon
UO-31 renal = tested on: UO-31 renal
KM12 colon = tested on: KM12 colon
NCI-H522 lung = tested on: NCI-H522 lung
SK-OV-3 ovarian = tested on: SK-OV-3 ovarian
OVCAR-5 ovarian = tested on: OVCAR-5 ovarian
SK-MEL-28 melanoma = tested on: SK-MEL-28 melanoma
SF-539 CNS = tested on: SF-539 CNS
HL-60(TB) leukemia = tested on: HL-60(TB) leukemia
MALME-3M melanoma = tested on: MALME-3M melanoma
SK-MEL-2 melanoma = tested on: SK-MEL-2 melanoma
T-47D breast = tested on: T-47D breast
EKVX NSCLC = tested on: EKVX NSCLC
OVCAR-4 ovarian = tested on: OVCAR-4 ovarian
HT29 colon = tested on: HT29 colon
PC-3 prostate = tested on: PC-3 prostate
UACC-62 melanoma = tested on: UACC-62 melanoma
HOP-62 NSCLC = tested on: HOP-62 NSCLC
SNB-19 CNS = tested on: SNB-19 CNS
MDA-MB-435 = tested on: MDA-MB-435
COLO 205 colon = tested on: COLO 205 colon
DU-145 prostate = tested on: DU-145 prostate
SF-268 CNS = tested on: SF-268 CNS
NCI/ADR-RES ovarian = tested on: NCI/ADR-RES ovarian
NCI-H23 lung = tested on: NCI-H23 lung
M14 melanoma = tested on: M14 melanoma
HCT-15 colon = tested on: HCT-15 colon
A498 renal = tested on: A498 renal
ACHN renal = tested on: ACHN renal
NCI-H226 lung = tested on: NCI-H226 lung
BT-549 breast = tested on: BT-549 breast
OVCAR-8 ovarian = tested on: OVCAR-8 ovarian
786-0 renal = tested on: 786-0 renal
HS 578T breast = tested on: HS 578T breast
MDA-MB-231 breast = tested on: MDA-MB-231 breast
SK-MEL-5 melanoma = tested on: SK-MEL-5 melanoma
RXF 393 renal = tested on: RXF 393 renal
K-562 leukemia = tested on: K-562 leukemia
NCI-H460 lung = tested on: NCI-H460 lung
CCRF-CEM leukemia = tested on: CCRF-CEM leukemia
LOX IMVI melanoma = tested on: LOX IMVI melanoma
HCC-2998 colon = tested on: HCC-2998 colon
UACC-257 melanoma = tested on: UACC-257 melanoma
SNB-75 CNS = tested on: SNB-75 CNS
TK-10 renal = tested on: TK-10 renal

## C=CCN1C[C@@H](C)N([C@@H](c2ccccc2)c2ccc(C(=O)N(CC)CC)cc2)C[C@@H]1C
MCF7 breast
  TGI: > 100 µM
MDA-N
  TGI: > 100 µM
RPMI-8226 leukemia
  TGI: > 100 µM
IGROV1 ovarian
  TGI: > 100 µM
CAKI-1 renal
  TGI: > 100 µM
HOP-92 NSCLC
  TGI: 89 µM
SR leukemia
  TGI: > 100 µM
MOLT-4 leukemia
  TGI: > 100 µM
U251 CNS
  TGI: > 100 µM
SF-295 CNS
  TGI: > 100 µM
A549 NSCLC
  TGI: > 100 µM
HCT-116 colon
  TGI: > 100 µM
OVCAR-3 ovarian
  TGI: > 100 µM
SN12C renal
  TGI: > 100 µM
SW-620 colon
  TGI: > 100 µM
UO-31 renal
  TGI: > 100 µM
KM12 colon
  TGI: > 100 µM
NCI-H522 lung
  TGI: > 100 µM
SK-OV-3 ovarian
  TGI: > 100 µM
OVCAR-5 ovarian
  TGI: > 100 µM
SK-MEL-28 melanoma
  TGI: > 100 µM
SF-539 CNS
  TGI: > 100 µM
HL-60(TB) leukemia
  TGI: > 100 µM
MALME-3M melanoma
  TGI: > 100 µM
SK-MEL-2 melanoma
  TGI: > 100 µM
T-47D breast
  TGI: > 100 µM
EKVX NSCLC
  TGI: > 100 µM
OVCAR-4 ovarian
  TGI: > 100 µM
HT29 colon
  TGI: > 100 µM
PC-3 prostate
  TGI: > 100 µM
UACC-62 melanoma
  TGI: > 100 µM
HOP-62 NSCLC
  TGI: > 100 µM
SNB-19 CNS
  TGI: > 100 µM
MDA-MB-435
  TGI: > 100 µM
COLO 205 colon
  TGI: > 100 µM
DU-145 prostate
  TGI: > 100 µM
SF-268 CNS
  TGI: > 100 µM
NCI/ADR-RES ovarian
  TGI: > 100 µM
NCI-H23 lung
  TGI: > 100 µM
M14 melanoma
  TGI: > 100 µM
HCT-15 colon
  TGI: > 100 µM
A498 renal
  TGI: > 100 µM
ACHN renal
  TGI: > 100 µM
NCI-H226 lung
  TGI: > 100 µM
BT-549 breast
  TGI: > 100 µM
OVCAR-8 ovarian
  TGI: > 100 µM
786-0 renal
  TGI: > 100 µM
HS 578T breast
  TGI: > 100 µM
MDA-MB-231 breast
  TGI: > 100 µM
SK-MEL-5 melanoma
  TGI: > 100 µM

## Cc1cc(O)c(O)c(Oc2cc(C)cc(O)c2O)c1
MCF7 breast
  TGI: 29.3 µM
MDA-N
  TGI: > 100 µM
RPMI-8226 leukemia
  TGI: > 100 µM
IGROV1 ovarian
  TGI: 69.6 µM
RXF 393 renal
  TGI: 88.2 µM
CAKI-1 renal
  TGI: > 100 µM
K-562 leukemia
  TGI: > 100 µM
HOP-92 NSCLC
  TGI: 41.1 µM
SR leukemia
  TGI: 43.5 µM
MOLT-4 leukemia
  TGI: > 100 µM
U251 CNS
  TGI: > 100 µM
SF-295 CNS
  TGI: 55.7 µM
A549 NSCLC
  TGI: > 100 µM
HCT-116 colon
  TGI: 41.1 µM
OVCAR-3 ovarian
  TGI: > 100 µM
SN12C renal
  TGI: 59.7 µM
SW-620 colon
  TGI: > 100 µM
UO-31 renal
  TGI: > 100 µM
KM12 colon
  TGI: > 100 µM
NCI-H522 lung
  TGI: 34.8 µM
SK-OV-3 ovarian
  TGI: > 100 µM
OVCAR-5 ovarian
  TGI: > 100 µM
SK-MEL-28 melanoma
  TGI: > 100 µM
SF-539 CNS
  TGI: > 100 µM
HL-60(TB) leukemia
  TGI: 5.54 µM
SK-MEL-2 melanoma
  TGI: > 100 µM
T-47D breast
  TGI: 84.9 µM
NCI-H460 lung
  TGI: 26.6 µM
EKVX NSCLC
  TGI: 36.8 µM
OVCAR-4 ovarian
  TGI: 28.8 µM
HT29 colon
  TGI: 41.1 µM
CCRF-CEM leukemia
  TGI: 7.46 µM
LOX IMVI melanoma
  TGI: 24.6 µM
PC-3 prostate
  TGI: > 100 µM
UACC-62 melanoma
  TGI: 56.8 µM
HOP-62 NSCLC
  TGI: > 100 µM
SNB-19 CNS
  TGI: > 100 µM
MDA-MB-435
  TGI: > 100 µM
COLO 205 colon
  TGI: 36.4 µM
DU-145 prostate
  TGI: > 100 µM
SF-268 CNS
  TGI: 95 µM
NCI-H23 lung
  TGI: > 100 µM
M14 melanoma
  TGI: 49.3 µM
HCT-15 colon
  TGI: 29.9 µM
A498 renal
  TGI: > 100 µM
ACHN renal
  TGI: 79.9 µM
HCC-2998 colon
  TGI: > 100 µM
UACC-257 melanoma
  TGI: > 100 µM
NCI-H226 lung
  TGI: 75.1 µM
BT-549 breast
  TGI: 78.9 µM
SNB-75 CNS
  TGI: > 100 µM
OVCAR-8 ovarian
  TGI: 45.1 µM
786-0 renal
  TGI: 55.5 µM
HS 578T breast
  TGI: > 100 µM
MDA-MB-231 breast
  TGI: 52.7 µM
TK-10 renal
  TGI: 36.3 µM
SK-MEL-5 melanoma
  TGI: > 100 µM
